pIC50: −log10 of the molar value.
Molecular target: Tubulin alpha chain (Sus scrofa, UniProt P02550)
Assay: Evaluated for the inhibitory concentration against porcine brain tubulin polymerization
Assay type: functional

Tubulin alpha chain, sequence (P02550 whole entry, looked up): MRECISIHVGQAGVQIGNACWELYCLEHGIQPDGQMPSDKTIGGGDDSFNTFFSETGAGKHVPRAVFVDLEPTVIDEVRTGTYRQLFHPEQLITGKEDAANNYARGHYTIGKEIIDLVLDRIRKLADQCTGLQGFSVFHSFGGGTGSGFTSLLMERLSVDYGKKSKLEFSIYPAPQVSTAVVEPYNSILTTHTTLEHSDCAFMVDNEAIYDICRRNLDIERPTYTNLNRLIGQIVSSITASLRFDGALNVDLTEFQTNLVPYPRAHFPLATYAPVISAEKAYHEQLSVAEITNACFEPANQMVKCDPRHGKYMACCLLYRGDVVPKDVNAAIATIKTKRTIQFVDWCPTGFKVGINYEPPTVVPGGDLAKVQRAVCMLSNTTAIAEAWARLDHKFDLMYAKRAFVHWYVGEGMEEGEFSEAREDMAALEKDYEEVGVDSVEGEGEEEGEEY

| SMILES | pIC50 |
| --- | --- |
| COc1ccc(N(Cc2cc(OC)c(OC)c(OC)c2)C(C)=O)cc1O | < 4.00 |
| COc1ccc(CNc2cc(OC)c(OC)c(OC)c2)cc1O | 4.00 |
| CCCCN(Cc1cc(OC)c(OC)c(OC)c1)c1ccc(OC)c(O)c1 | 5.12 |
| COc1ccc(N(C)C(=O)c2cc(OC)c(OC)c(OC)c2)cc1O | < 4.00 |
| CCN(Cc1cc(OC)c(OC)c(OC)c1)c1ccc(OC)c(O)c1 | 4.82 |
| COc1ccc(C(=O)N(C)c2cc(OC)c(OC)c(OC)c2)cc1O | < 4.00 |
| COc1ccc(N(CCCCCO)Cc2cc(OC)c(OC)c(OC)c2)cc1O | 4.70 |
| COc1ccc(NCc2cc(OC)c(OC)c(OC)c2)cc1O | 4.00 |
| COc1ccc(N(CCCC(=O)O)Cc2cc(OC)c(OC)c(OC)c2)cc1O | 4.40 |

Second part, the compound after the results:

| pIC50 | SMILES |
| --- | --- |
| 4.35 | COc1ccc(N(C)Cc2cc(OC)c(OC)c(OC)c2)cc1O |
| 4.00 | COc1ccc(CN(C)c2cc(OC)c(OC)c(OC)c2)cc1O |
| < 4.00 | COc1ccc(C(=O)Nc2cc(OC)c(OC)c(OC)c2)cc1O |
| < 4.00 | CCC(=O)N(Cc1cc(OC)c(OC)c(OC)c1)c1ccc(OC)c(O)c1 |
| 5.27 | CCCN(Cc1cc(OC)c(OC)c(OC)c1)c1ccc(OC)c(O)c1 |
| 4.70 | CCCCCCN(Cc1cc(OC)c(OC)c(OC)c1)c1ccc(OC)c(O)c1 |
| 4.70 | CCCCCN(Cc1cc(OC)c(OC)c(OC)c1)c1ccc(OC)c(O)c1 |
| < 4.00 | COc1ccc(NC(=O)c2cc(OC)c(OC)c(OC)c2)cc1O |

Reference: ChEMBL document CHEMBL1151593, “Synthesis and nti-tubulin activity of aza-combretastatins” (Bioorg Med Chem Lett, 1994)
